How the values were obtained:
keratin 5 = assay: In vitro assay for keratin 5 production in keratinocytes; type: cell-based; details: concentration of 0.01%
[1] = test system: lipid peroxidation in keratinocytes; assay: In vitro assay of lipid peroxidation in keratinocytes; type: cell-based; details: concentration of 0.001%
MMP-3 = MMP-3 (Homo sapiens, UniProt P08254); assay: In vitro assay of MMP-3 enzymatic activity; type: biochemical; details: concentration of 2×10^−7%
collagen IV = details: fibroblasts; concentrations of 2×10^−5% and 2×10^−6%
fibronectin = details: fibroblasts; concentrations of 2×10^−5% and 2×10^−6%
elastin = details: fibroblasts; concentrations of 2×10^−5% and 2×10^−6%

Sequence of MMP-3 (P08254 100-477, species assumed): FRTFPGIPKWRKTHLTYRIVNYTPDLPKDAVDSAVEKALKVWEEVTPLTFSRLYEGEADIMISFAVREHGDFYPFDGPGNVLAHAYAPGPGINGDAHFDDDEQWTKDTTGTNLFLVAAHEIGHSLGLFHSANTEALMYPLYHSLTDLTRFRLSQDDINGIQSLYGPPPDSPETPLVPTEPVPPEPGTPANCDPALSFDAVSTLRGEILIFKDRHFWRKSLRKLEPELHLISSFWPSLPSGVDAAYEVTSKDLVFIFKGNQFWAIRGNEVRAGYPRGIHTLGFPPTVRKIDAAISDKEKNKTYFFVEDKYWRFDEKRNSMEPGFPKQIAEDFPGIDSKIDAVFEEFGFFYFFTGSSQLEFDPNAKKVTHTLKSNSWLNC

Compound: CN(CC(=O)O)C(=N)N [creatine]
- keratin 5 production (keratin 5): can increase keratin 5 production

Compound: CC(=O)Oc1c(C)c(C)c2c(c1C)CCC(C)(CCC[C@H](C)CCC[C@H](C)CCCC(C)C)O2 (stereo partly drawn) [tocopherol acetate]
- lipid peroxidation [1]: can inhibit lipid peroxidation

Compound: N-biotinyl-gly-his-lys
- enzymatic activity of MMP-3 (MMP-3): can decrease enzymatic activity
- production of collagen IV (collagen IV): can increase production
- production of fibronectin (fibronectin): can increase production
- production of elastin (elastin): can increase production
